Data as given in article doi:10.1101/2023.01.08.523168v1 (biorxiv, 2023).
Residues, ends and D or L forms follow the SMILES beside them. *: point of attachment. Oxazole(5-CO) = O=C(c1cnco1)*

Biological target: T1, NanoLuc-ENL (ENL YEATS-NanoLuc luciferase fusion protein) (Homo sapiens, UniProt Q03111)
T1 sequence (Q03111 1-148): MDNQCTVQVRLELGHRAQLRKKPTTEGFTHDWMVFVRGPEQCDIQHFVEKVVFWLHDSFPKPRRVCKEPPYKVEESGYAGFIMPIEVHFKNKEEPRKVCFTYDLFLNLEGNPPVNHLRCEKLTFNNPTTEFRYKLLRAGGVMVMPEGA
Assay: NanoBRET tracer displacement in HEK293T cells
Assay type: cell-based
Conditions: HEK-293T, read-out: % inhibition at 40 μM

`CC(=O)N[C@H](C(=O)N[C@@H](Cc1ccc(O)cc1)C(=O)N[C@@H](CS)C(=O)N[C@@H](Cc1ccc(O)cc1)C(=O)N[C@@H](CCCCNC(=O)c1cnco1)C(N)=O)C(C)C` [tENL-S1o] (Ac-VYCYK(Oxazole(5-CO))-NH2) showed an inhibition at 40 µM of roughly 50%.
